Entries after “also recorded” stand apart in the source; their conditions may differ. Where two headings read alike, the source gives them in different places.
Key:
Male WKY rats = assay: Low-dose sleep, locomotor, body temperature and qEEG study in WKY rats; type: in vivo, rat; details: 1, 3 and 10 mg/kg IP
Method: The aim of the current study was to identify a minimal effective dose of compound by testing a series of lower doses (1, 3 and 10 mg/kg). The study was carried out similarly to Examples 7 and 9 with differences noted below. Male WKY rats (n=8, 255-296 g at the start of dosing) were housed in groups of 2-3 animals per cage with standard housing conditions.

[1] = Terminal plasma and brain concentrations in mice; type: in vivo; details: C57BL/6J, mouse, intraperitoneal
Method: Prior to the onset of procedures, animals were weighed and allocated into 5 groups by a statistician based on body weight. Animals sharing a cage were dosed with the same drug treatments to avoid cross contamination between groups. Animals were dosed intraperitoneally with psilocybin (3 mg/kg), or one of 3 doses of compound 2-2 (1 mg/kg, 3 mg/kg, 10 mg/kg). Dosing was to a timed scheduled. Animals were weighed prior to dosing and the body weight recorded. Food and water intake were not monitored. The animals were dosed at time “0” and then returned to the home cage. Behaviors of note after dosing were recorded. Each animal was humanely killed (by exposure to increasing CO2 concentration and confirmation of death by cervical dislocation) to allow terminal blood sampling to take place 15 minutes after dosing. The brain sampling was performed immediately after blood sampling was completed for each animal.
Post-mortem blood samples (approx. 0.5 ml) were collected from all animals by cardiac puncture for DMPK analysis, dispensed into a LH-coated tube. The blood samples were gently inverted, centrifuged promptly (2400 g for 5 minutes at 4° C.) and 150 μl of plasma from each animal was placed into a 96-well plate. Plasma samples from group B were stabilized with DTT (50 mM; 1:10). All plasma samples were frozen on dry ice and stored at approximately −80° C. prior to analysis. Whole brains were removed from all animals, rinsed briefly with saline and blot dried. The left and right frontal cortices (˜25 mg each frontal cortex) were dissected separately from the brain, weighed, placed in microtubes, frozen on dry ice and stored at −20° C. to measure receptor occupancy. The remaining brain tissue was weighed, placed in homogenization tubes, frozen on dry ice, and stored at −80° C. prior to transferring (on dry ice) to Signature DMPK with the plasma samples.

5-HT2A = 5-HT2A (Homo sapiens, UniProt P28223); assay: 5-HT2A receptor binding in human post-mortem frontal cortical tissue
Male Sprague-Dawley rats = assay: Rat forced swim test, immobility frequency; type: in vivo; details: 3 and 30 mg/kg, i.p. at 23.5, 16 and 0.5 hours prior; 5-minute swim test
Method: Male Sprague-Dawley rats were placed individually in clear acrylic swim chambers (40 cm height×20.3 cm diameter) filled to 16 cm for a 15-minute pre-swim session on day 1 and filled to 30 cm for a 5-minute swim test session 24 hours later. Rats (n=10 per treatment group) were administered compound 2-1 (3, 10, 30 mg/kg, i.p., 1 mL/kg, based on weight of the free base) or vehicle (40% (w/v) 2-HPBCD in water, i.p.) at 23.5, 16 and 0.5 hours prior to the swim test. The rapid-acting antidepressant, ketamine (10 mg/kg, i.p.), was included in the study as a positive control condition and injected once 24 hours prior to the swim test.

C57BL/6J male mice = assay: Mouse forced swim test 24 hr after single administration; type: in vivo; details: 3, 10 & 30 mg/kg i.p., 24 hr post-administration
Method: Young adult C57BL/6J male mice (8-9 weeks old at arrival; n=113) were purchased from Charles River (DE). All C57BL/6J mice were housed in groups of 4 per cage. Mice were maintained under controlled conditions (21±2° C., 50±1% humidity, 12/12 h light/dark cycles, lights on at 7 a.m.) with food and water available ad libitum.
Experimental Design: The experimental procedures were in accordance with the European Communities Council Directive (Directive 2010/63 EU into the Polish Directives (Journal of Laws of 2021, item 1331, as amended)) and approved by the Local Ethic Committee in Olsztyn (Approval No. 27/203 from 22 Mar. 2023). […]
Forced Swim Test: After 17 days of acclimatization (11-12 weeks old), all mice were randomly assigned to experimental groups (n=14-15/group). Sample size (n=14 per group) was determined based on G-power calculations using alpha 0.05, t-test and effect size calculation based on mean and SD from vehicle and positive control groups. […] Because little immobility is observed during the first 2 minutes of the FST, only immobility occurring during the last 4 minutes was scored and analyzed. […] All test sessions were recorded using a video camera placed on the side of the cylinder for subsequent behavioral analysis by scorers blinded to the treatment conditions. […]
Data Analysis: Data for each compound have been analyzed separately using the GraphPad Prism 9 statistical software. […]

Sequence of 5-HT2A (P28223 whole entry): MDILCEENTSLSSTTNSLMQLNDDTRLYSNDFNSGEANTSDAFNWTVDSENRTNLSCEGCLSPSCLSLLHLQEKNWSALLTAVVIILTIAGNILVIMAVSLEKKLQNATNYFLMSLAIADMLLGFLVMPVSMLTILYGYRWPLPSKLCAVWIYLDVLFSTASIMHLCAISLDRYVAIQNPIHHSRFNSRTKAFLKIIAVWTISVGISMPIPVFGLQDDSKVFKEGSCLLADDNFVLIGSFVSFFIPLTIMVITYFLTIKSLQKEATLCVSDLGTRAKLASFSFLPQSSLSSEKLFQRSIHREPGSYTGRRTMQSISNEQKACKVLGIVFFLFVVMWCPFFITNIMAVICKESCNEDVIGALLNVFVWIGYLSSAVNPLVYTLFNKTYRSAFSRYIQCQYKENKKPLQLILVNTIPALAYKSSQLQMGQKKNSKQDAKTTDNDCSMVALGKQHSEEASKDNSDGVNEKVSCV

SMILES | body temperature (Male WKY rats) | locomotion (Male WKY rats) | concentration at 15 min ([1]; brain, 1 mg/kg, 1 mg/kg IP, read-out: Terminal Brain Conc (ng/g) at 15 min, Mean) | concentration at 15 min ([1]; brain, 1 mg/kg, 1 mg/kg IP, read-out: Terminal Brain Free Concentration (uM) at 15 min, Mean) | concentration at 15 min ([1]; brain, 1 mg/kg, 1 mg/kg IP, read-out: Terminal Brain Total Concentration (uM) at 15 min, Mean) | concentration at 15 min ([1]; brain, 3 mg/kg, 3 mg/kg IP, read-out: Terminal Brain Free Concentration (uM) at 15 min, Mean) | concentration at 15 min ([1]; brain, 10 mg/kg, 10 mg/kg IP, read-out: Terminal Brain Conc (ng/g) at 15 min, Mean) | concentration at 15 min ([1]; brain, 10 mg/kg, 10 mg/kg IP, read-out: Terminal Brain Free Concentration (uM) at 15 min, Mean) | concentration at 15 min ([1]; brain, 10 mg/kg, 10 mg/kg IP, read-out: Terminal Brain Total Concentration (uM) at 15 min, Mean) | concentration at 15 min ([1]; plasma, 1 mg/kg, 1 mg/kg IP, read-out: Terminal Plasma Conc (ng/mL) at 15 min, Mean) | concentration at 15 min ([1]; plasma, 1 mg/kg, 1 mg/kg IP, read-out: Terminal Plasma Free Concentration (uM) at 15 min, Mean) | concentration at 15 min ([1]; plasma, 1 mg/kg, 1 mg/kg IP, read-out: Terminal Plasma Total Concentration (uM) at 15 min, Mean) | concentration at 15 min ([1]; plasma, 3 mg/kg, 3 mg/kg IP, read-out: Terminal Plasma Free Concentration (uM) at 15 min, Mean) | concentration at 15 min ([1]; plasma, 10 mg/kg, 10 mg/kg IP, read-out: Terminal Plasma Conc (ng/mL) at 15 min, Mean) | concentration at 15 min ([1]; plasma, 10 mg/kg, 10 mg/kg IP, read-out: Terminal Plasma Free Concentration (uM) at 15 min, Mean) | concentration at 15 min ([1]; plasma, 10 mg/kg, 10 mg/kg IP, read-out: Terminal Plasma Total Concentration (uM) at 15 min, Mean) | IC50 (5-HT2A) | Ki (5-HT2A) | frequency of immobility compared to vehicle (Male Sprague-Dawley rats) | immobility time in mouse FST (C57BL/6J male mice)
COc1ccc(OC)c(CCNCc2cc(C)cc(F)c2)c1 [Compound 2-2, 2-(2,5-dimethoxyphenyl)-N-(3-fluoro-5-methylbenzyl)ethan-1-amine] | did not affect | did not affect | 182 ng/g | 0.01 µM | 0.6 µM | 0.039 µM | 3280 ng/g | 0.175 µM | 10.8 µM | 60.1 ng/mL | 0.016 µM | 0.2 µM | 0.082 µM | 1020 ng/mL | 0.277 µM | 3.38 µM | 69 nM | 30.8 nM |  | 
COc1ccc(OC)c(CCNCc2cc(C)cc(Cl)c2)c1 [Compound 2-1, N-(3-chloro-5-methylbenzyl)-2-(2,5-dimethoxyphenyl)ethan-1-amine] |  |  |  |  |  |  |  |  |  |  |  |  |  |  |  |  |  |  | significantly decreased | lack of robust differences; also recorded: Neither compound 2-1 (3, 10 & 30 mg/kg) nor compound 2-2 (3 & 30 mg/kg) showed significant reductions

— patent publication US12343319B2, “Compositions and methods for treatment of diseases and disorders” (Atai Therapeutics Inc., priority 2023, dated 2025)
